Test results from PubChem BioAssay AID1963449 (Molecular Pharmacology Branch, DTP, NCI, 2024).
Each block holds one compound with its values, some of them ahead of it.

Test system: 596521-263-R-J1-PDC complex spheroid growth
Assay: Anticancer human tumor 596521-263-R-J1-PDC patient-derived soft tissue sarcoma cell line growth inhibition [Asc]
Conditions: for IC50: curve of first compound; for viability, T/C: stronger effect = lower value
Outline: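 Complex spheroids combining tumor cells with HUVEC endothelial cells and human MSCs, at 37 degrees C, 5% CO2; agents tested alone or combined, half-log dilutions from at or near clinical Cmax, or 10 microM if Cmax unknown.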

[1] = second compound 0.0316 µM, first compound 0.00316 µM
[2] = second compound 0.0316 µM, first compound 0.01 µM
[3] = second compound 0.0316 µM, first compound 0.0316 µM
[4] = second compound 0.0316 µM, first compound 0.1 µM
[5] = second compound 0.0316 µM, first compound 0.316 µM
[6] = second compound 0.0316 µM, first compound 1 µM
[7] = second compound 0.1 µM, first compound 0.00316 µM
[8] = second compound 0.1 µM, first compound 0.01 µM
[9] = second compound 0.1 µM, first compound 0.0316 µM
[10] = second compound 0.1 µM, first compound 0.1 µM
[11] = second compound 0.1 µM, first compound 0.316 µM
[12] = second compound 0.1 µM, first compound 1 µM
[13] = second compound 0.316 µM, first compound 0.00316 µM
[14] = second compound 0.316 µM, first compound 0.01 µM
[15] = second compound 0.316 µM, first compound 0.0316 µM
[16] = second compound 0.316 µM, first compound 0.1 µM
[17] = second compound 0.316 µM, first compound 0.316 µM
[18] = second compound 0.316 µM, first compound 1 µM
[19] = second compound 1 µM, first compound 0.00316 µM
[20] = second compound 1 µM, first compound 0.01 µM
[21] = second compound 1 µM, first compound 0.0316 µM
[22] = second compound 1 µM, first compound 0.1 µM
[23] = second compound 1 µM, first compound 0.316 µM
[24] = second compound 1 µM, first compound 1 µM
[25] = second compound 3.16 µM, first compound 0.00316 µM
[26] = second compound 3.16 µM, first compound 0.01 µM
[27] = second compound 3.16 µM, first compound 0.0316 µM
[28] = second compound 3.16 µM, first compound 0.1 µM
[29] = second compound 3.16 µM, first compound 0.316 µM
[30] = second compound 3.16 µM, first compound 1 µM
[31] = second compound 10 µM, first compound 0.00316 µM
[32] = second compound 10 µM, first compound 0.01 µM
[33] = second compound 10 µM, first compound 0.0316 µM
[34] = second compound 10 µM, first compound 0.1 µM
[35] = second compound 10 µM, first compound 0.316 µM
[36] = second compound 10 µM, first compound 1 µM
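Note: spheroids exposed to compounds for 7 days.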

IC50 (second compound 0.0316 µM): > 1000 nM
IC50 (second compound 0.1 µM): > 1000 nM
IC50 (second compound 0.316 µM): > 1000 nM
IC50 (second compound 1 µM): > 1000 nM
IC50 (second compound 3.16 µM): > 1000 nM
IC50 (second compound 10 µM): > 1000 nM
Compound: CCN1CCN(Cc2ccc(Nc3ncc(F)c(-c4cc(F)c5nc(C)n(C(C)C)c5c4)n3)nc2)CC1 + Cc1c(S(C)(=O)=O)c(-c2cc(F)cc(N3CCN(c4ccc(NS(=O)(=O)c5ccc(NC(CCN6CCC(C(=O)OCCCP(=O)(O)O)CC6)CSc6ccccc6)c(S(=O)(=O)C(F)(F)F)c5)cc4)CC3)c2)c(-c2ccc(Cl)cc2)n1C(C)C
viability, T/C [1]: 94.2%
viability, T/C [2]: 95.2%
viability, T/C [3]: 92%
viability, T/C [4]: 84.3%
viability, T/C [5]: 91.4%
viability, T/C [6]: 97%
viability, T/C [7]: 93.7%
viability, T/C [8]: 91.5%
viability, T/C [9]: 94.1%
viability, T/C [10]: 81.1%
viability, T/C [11]: 88.7%
viability, T/C [12]: 82%
viability, T/C [13]: 102%
viability, T/C [14]: 79%
viability, T/C [15]: 77.8%
viability, T/C [16]: 75.7%
viability, T/C [17]: 75.3%
viability, T/C [18]: 83.8%
viability, T/C [19]: 83%
viability, T/C [20]: 73.9%
viability, T/C [21]: 78.5%
viability, T/C [22]: 70.5%
viability, T/C [23]: 87.7%
viability, T/C [24]: 67.1%
viability, T/C [25]: 68.1%
viability, T/C [26]: 69.6%
viability, T/C [27]: 63.3%
viability, T/C [28]: 59.6%
viability, T/C [29]: 66.8%
viability, T/C [30]: 66.4%
viability, T/C [31]: 58.1%
viability, T/C [32]: 57.1%
viability, T/C [33]: 56%
viability, T/C [34]: 54.8%
viability, T/C [35]: 57%
viability, T/C [36]: 55.1%

IC50 (second compound 0.0316 µM): > 100 nM
IC50 (second compound 0.1 µM): > 100 nM
IC50 (second compound 0.316 µM): > 100 nM
IC50 (second compound 1 µM): > 100 nM
IC50 (second compound 3.16 µM): 38.5 nM
IC50 (second compound 10 µM): 1.07 nM
Compound: Cn1ncnc1[C@H]1c2n[nH]c(=O)c3cc(F)cc(c23)N[C@@H]1c1ccc(F)cc1 + Cc1c(S(C)(=O)=O)c(-c2cc(F)cc(N3CCN(c4ccc(NS(=O)(=O)c5ccc(NC(CCN6CCC(C(=O)OCCCP(=O)(O)O)CC6)CSc6ccccc6)c(S(=O)(=O)C(F)(F)F)c5)cc4)CC3)c2)c(-c2ccc(Cl)cc2)n1C(C)C
viability, T/C (second compound 0.0316 µM, first compound 0.000316 µM): 97.5%
viability, T/C (second compound 0.0316 µM, first compound 0.001 µM): 112%
viability, T/C [1]: 81.9%
viability, T/C [2]: 94.1%
viability, T/C [3]: 87.4%
viability, T/C [4]: 79.3%
viability, T/C (second compound 0.1 µM, first compound 0.000316 µM): 90.6%
viability, T/C (second compound 0.1 µM, first compound 0.001 µM): 97.8%
viability, T/C [7]: 94.3%
viability, T/C [8]: 81.6%
viability, T/C [9]: 78.5%
viability, T/C [10]: 74.5%
viability, T/C (second compound 0.316 µM, first compound 0.000316 µM): 88.5%
viability, T/C (second compound 0.316 µM, first compound 0.001 µM): 86.6%
viability, T/C [13]: 77.7%
viability, T/C [14]: 82.8%
viability, T/C [15]: 75.5%
viability, T/C [16]: 73.4%
viability, T/C (second compound 1 µM, first compound 0.000316 µM): 90.9%
viability, T/C (second compound 1 µM, first compound 0.001 µM): 85.3%
viability, T/C [19]: 85.2%
viability, T/C [20]: 65%
viability, T/C [21]: 68.4%
viability, T/C [22]: 61.1%
viability, T/C (second compound 3.16 µM, first compound 0.000316 µM): 58.7%
viability, T/C (second compound 3.16 µM, first compound 0.001 µM): 69.5%
viability, T/C [25]: 57.3%
viability, T/C [26]: 57.4%
viability, T/C [27]: 52.6%
viability, T/C [28]: 40.2%
viability, T/C (second compound 10 µM, first compound 0.000316 µM): 54.1%
viability, T/C (second compound 10 µM, first compound 0.001 µM): 50.3%
viability, T/C [31]: 43.6%
viability, T/C [32]: 42%
viability, T/C [33]: 42%
viability, T/C [34]: 28.9%

IC50 (second compound 0.0316 µM): 349 nM
IC50 (second compound 0.1 µM): 236 nM
IC50 (second compound 0.316 µM): 209 nM
IC50 (second compound 1 µM): 172 nM
IC50 (second compound 3.16 µM): 124 nM
IC50 (second compound 10 µM): 55.5 nM
Compound: O=C(c1ccc(F)c(F)c1Nc1ccc(I)cc1F)N1CC(O)([C@@H]2CCCCN2)C1 + Cc1c(S(C)(=O)=O)c(-c2cc(F)cc(N3CCN(c4ccc(NS(=O)(=O)c5ccc(NC(CCN6CCC(C(=O)OCCCP(=O)(O)O)CC6)CSc6ccccc6)c(S(=O)(=O)C(F)(F)F)c5)cc4)CC3)c2)c(-c2ccc(Cl)cc2)n1C(C)C
viability, T/C [1]: 96%
viability, T/C [2]: 93%
viability, T/C [3]: 93.3%
viability, T/C [4]: 74.9%
viability, T/C [5]: 52.7%
viability, T/C [6]: 30.2%
viability, T/C [7]: 101%
viability, T/C [8]: 102%
viability, T/C [9]: 103%
viability, T/C [10]: 70.2%
viability, T/C [11]: 45.5%
viability, T/C [12]: 29.9%
viability, T/C [13]: 87.1%
viability, T/C [14]: 84%
viability, T/C [15]: 87.1%
viability, T/C [16]: 71.1%
viability, T/C [17]: 38.1%
viability, T/C [18]: 22.9%
viability, T/C [19]: 83.3%
viability, T/C [20]: 70.9%
viability, T/C [21]: 84.8%
viability, T/C [22]: 66.3%
viability, T/C [23]: 31.4%
viability, T/C [24]: 21.8%
viability, T/C [25]: 62.8%
viability, T/C [26]: 71.4%
viability, T/C [27]: 62.2%
viability, T/C [28]: 55.8%
viability, T/C [29]: 26.7%
viability, T/C [30]: 16.8%
viability, T/C [31]: 54.1%
viability, T/C [32]: 57.4%
viability, T/C [33]: 55%
viability, T/C [34]: 45%
viability, T/C [35]: 26.8%
viability, T/C [36]: 18.6%
